In ChEMBL document CHEMBL5380794, “Discovery of a Potent and Selective STAT5 PROTAC Degrader with Strong Antitumor Activity In Vivo in Acute Myeloid Leukemia” (J Med Chem, 2023):
Calls of active or inactive are those of the source. No cut-off for these calls is given here.

What was measured:
SKNO-1 [1] = assay: Effect on STAT1 level in human SKNO-1 cells upto 5 uM measured for 18 hrs by Western blot analysis; type: functional, cell-based
SKNO-1 [2] = assay: Effect on STAT2 level in human SKNO-1 cells upto 5 uM measured for 18 hrs by Western blot analysis; type: functional, cell-based
SKNO-1 [3] = assay: Effect on STAT4 level in human SKNO-1 cells upto 5 uM measured for 18 hrs by Western blot analysis; type: functional, cell-based
MV4-11 [4] = assay: Effect on STAT2 level in human MV4-11 cells upto 5 uM measured for 18 hrs by Western blot analysis; type: functional, cell-based
MV4-11 [5] = assay: Effect on STAT6 level in human MV4-11 cells upto 5 uM measured for 18 hrs by Western blot analysis; type: functional, cell-based
[6] = Antiproliferative activity against human SKNO-1 cells assessed as cell growth inhibition measured for 4 days by celltiter-glo assay; conditions: SKNO-1, 96 h
MV4-11 [7] = assay: Antiproliferative activity against human MV4-11 cells assessed as cell growth inhibition measured for 4 days by celltiter-glo assay; conditions: MV4-11, 96 h
[8] = Antiproliferative activity against human Kasumi-3 cells assessed as cell growth inhibition measured for 4 days by celltiter-glo assay; conditions: Kasumi-3, 96 h
[9] = Antiproliferative activity against human OCI-M2 cells assessed as cell growth inhibition measured for 4 days by celltiter-glo assay; conditions: OCI-M2, 96 h
[10] = Antiproliferative activity against human SKNO-1 cells assessed as maximal cell growth inhibition measured for 4 days by celltiter-glo assay relative to control; type: functional; conditions: time 4 day
RS4-11 = assay: Antiproliferative activity against human RS4-11 cells assessed as maximal cell growth inhibition measured for 4 days by celltiter-glo assay relative to control; type: functional; conditions: time 4 day
[11] = Antiproliferative activity against human OCI-M2 cells assessed as maximal cell growth inhibition measured for 4 days by celltiter-glo assay relative to control; type: functional; conditions: time 4 day
MOLM-13 = assay: Antiproliferative activity against human MOLM-13 cells assessed as maximal cell growth inhibition measured for 4 days by celltiter-glo assay relative to control; type: functional; conditions: time 4 day
[12] = Half life in SCID mouse at 150 mg/kg, ip; type: ADME, organism-based; conditions: in vivo
[13] = In vivo induction of degradation of STAT5 in human MV4-11 cells xenografted in SCID mouse assessed as reduction in STAT5 phosphorylation at Y694 residue at 150 mg/kg, ip measured at 24 hrs by immunoblotting analysis; type: functional; set-up: scale not given: the % may be the effect or the level left
[14] = In vivo induction of degradation of STAT5 in human MV4-11 cells xenografted in SCID mouse assessed as reduction in STAT5 levels at 150 mg/kg, ip measured at 1 to 24 hrs by immunoblotting analysis; type: functional; set-up: scale not given: the % may be the effect or the level left; conditions: time 1-24 hrs
MV4-11 [15] = assay: Antitumor activity against human MV4-11 cells xenografted in SCID mouse assessed as tumor growth inhibition at 50 mg/kg, ip administered 5 days a week for 3 weeks; type: functional; conditions: MV4-11, 504 h, read-out: TGI
[16] = Toxicity in SCID mouse assessed as body weight loss at 50 to 200 mg/kg, ip administered 5 days a week for 3 weeks; type: organism-based; conditions: in vivo, 504 h, dose 50-200 mg/kg
STAT5A/STAT5B [17] = molecular target: T1, STAT5A/STAT5B (Homo sapiens, UniProt P42229+P51692); assay: Induction of STAT5A/5B degradation in human Kasumi-3 cells measured for 18 hrs by immunoblotting analysis; type: cell-based
T1 sequence (P42229 whole entry): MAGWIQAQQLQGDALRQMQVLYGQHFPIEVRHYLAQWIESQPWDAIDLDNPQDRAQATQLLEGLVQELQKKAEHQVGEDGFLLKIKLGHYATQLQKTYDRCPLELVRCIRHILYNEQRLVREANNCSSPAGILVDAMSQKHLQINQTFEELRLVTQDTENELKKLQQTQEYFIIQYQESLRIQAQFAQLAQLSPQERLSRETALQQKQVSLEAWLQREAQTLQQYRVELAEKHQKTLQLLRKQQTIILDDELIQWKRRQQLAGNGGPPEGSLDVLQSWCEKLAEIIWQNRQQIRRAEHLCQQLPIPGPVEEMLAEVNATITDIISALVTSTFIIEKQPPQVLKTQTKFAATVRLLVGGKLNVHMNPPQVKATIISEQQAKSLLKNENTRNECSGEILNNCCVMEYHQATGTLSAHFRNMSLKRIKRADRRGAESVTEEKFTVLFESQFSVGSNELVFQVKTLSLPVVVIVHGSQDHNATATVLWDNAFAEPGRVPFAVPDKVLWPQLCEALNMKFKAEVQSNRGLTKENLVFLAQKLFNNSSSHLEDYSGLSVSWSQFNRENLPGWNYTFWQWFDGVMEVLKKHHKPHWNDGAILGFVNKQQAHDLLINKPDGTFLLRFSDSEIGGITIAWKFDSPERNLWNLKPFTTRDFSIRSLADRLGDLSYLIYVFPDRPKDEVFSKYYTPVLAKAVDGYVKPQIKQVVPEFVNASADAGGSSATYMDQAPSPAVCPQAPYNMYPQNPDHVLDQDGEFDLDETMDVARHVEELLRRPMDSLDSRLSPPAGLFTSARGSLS
T1 sequence (P51692 whole entry): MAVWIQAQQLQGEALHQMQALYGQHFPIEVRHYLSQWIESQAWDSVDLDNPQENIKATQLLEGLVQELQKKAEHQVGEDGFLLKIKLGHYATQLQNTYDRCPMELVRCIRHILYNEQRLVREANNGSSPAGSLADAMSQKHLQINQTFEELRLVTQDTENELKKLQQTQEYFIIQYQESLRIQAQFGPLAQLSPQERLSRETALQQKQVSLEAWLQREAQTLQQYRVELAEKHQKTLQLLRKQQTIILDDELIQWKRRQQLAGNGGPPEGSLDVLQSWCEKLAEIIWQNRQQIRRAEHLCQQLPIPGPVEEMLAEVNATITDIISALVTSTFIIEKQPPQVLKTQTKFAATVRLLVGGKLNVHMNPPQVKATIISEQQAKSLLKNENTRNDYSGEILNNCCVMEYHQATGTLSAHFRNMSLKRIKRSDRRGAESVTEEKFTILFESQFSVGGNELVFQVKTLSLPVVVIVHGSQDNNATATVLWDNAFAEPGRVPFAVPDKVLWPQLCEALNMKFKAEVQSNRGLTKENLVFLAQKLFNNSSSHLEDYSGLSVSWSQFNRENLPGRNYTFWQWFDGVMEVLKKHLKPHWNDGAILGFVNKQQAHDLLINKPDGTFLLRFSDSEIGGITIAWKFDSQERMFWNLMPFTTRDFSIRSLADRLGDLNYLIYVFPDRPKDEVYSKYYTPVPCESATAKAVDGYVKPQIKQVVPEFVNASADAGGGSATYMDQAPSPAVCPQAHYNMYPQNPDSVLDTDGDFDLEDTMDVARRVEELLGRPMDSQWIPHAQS

STAT5A/STAT5B [18] = molecular target: T1, STAT5A/STAT5B; assay: Induction of STAT5A/5B degradation in human OCI-M2 cells measured for 18 hrs by immunoblotting analysis; type: cell-based
STAT5A/STAT5B [19] = molecular target: T1, STAT5A/STAT5B; assay: Induction of STAT5A/5B degradation in human BDCM cells measured for 18 hrs by immunoblotting analysis; type: cell-based
[20] = molecular target: T2, Signal transducer and activator of transcription 5A (Homo sapiens, UniProt P42229); assay: Induction of STAT5 degradation in human SKNO-1 cells assessed as reduction in phosphorylated STAT5 level measured for 18 hrs by immunoblotting analysis; type: cell-based
T2 sequence (P42229 whole entry): T1 sequence (P42229 whole entry)

In the case of `CN(CCCC#Cc1cccc2c1CN(C1CCC(=O)NC1=O)C2=O)C(=O)CCN(C(=O)[C@@H]1CCCN1C(=O)[C@@H](NC(=O)c1cc2cc(C(F)(F)P(=O)(O)O)ccc2s1)C(C)(C)C)c1ccc(-c2nccs2)cc1` (some centres not stated), the Activity (SKNO-1 [1]) is reported as “inactive”, the Activity (SKNO-1 [2]) is reported as “inactive” and the Activity (SKNO-1 [3]) is reported as “inactive”. For the same compound, the Activity (MV4-11 [4]) was “inactive”, the Activity (MV4-11 [5]) was “inactive” and the IC50 [6] was 360 nM. For the same compound, the IC50 (MV4-11 [7]) was 180 nM, the IC50 [8] was 350 nM and the IC50 [9] was greater than 15000 nM. It also gave an Imax [10] of 64%, an Imax (RS4-11) of less than 5% and an Imax [11] of less than 5%. The Imax (MOLM-13) was less than 5%, the half-life [12] was 1.9 h and the Activity [13] was greater than 70%. The Activity [14] was greater than 95%, the inhibition in vivo at 50 mg/kg (MV4-11 [15]) was 50% and the Activity [16] was “Non-Toxic”. It also gave a DC50 (STAT5A/STAT5B [17]) of 180 nM, a DC50 (STAT5A/STAT5B [18]) of 700 nM and a DC50 (STAT5A/STAT5B [19]) of 410 nM. The DC50 [20] was 70 nM.
